Experiments:
Format in all cases: in vivo, mouse
ceruloplasmin (CP) = test: Serum ceruloplasmin by TMT LC-MS/MS in treated TX mice; details: for CP level compared with control mice: serum of TX mice
Description: (§1) In order to confirm the positive role of TDMQ20 in the treatment of TX mice, we performed proteomic experiments. Samples from three mice of each group were depicted in Table 1, The samples were treated with TMT (Tandem Mass Tag) and detected by quantitative LC-MS/MS, then the data were analyzed with ProteomeDiscoverer 2.4.1.15 (ThermoFisher Scientific). Confidence proteins were screened according to the criteria of Sequest program score greater than 0 and number of unique peptides greater than or equal to 1, and blank values were removed.
The concentration of ceruloplasmin (CP), that contains the most part of blood copper, was measured by TMT LC-MS/MS in the serum of WD mice. […] The CP level was equal (25 mg/kg) or higher (50 mg/kg) than that observed in control mice. Since the level of CP is considered as a significant parameter in the clinical control of human Wilson's disease, the reversal of the CP impairment upon treatment by TDMQ20 confirms that this drug has a very good profile as drug-candidate for the treatment of Wilson's disease.

hepatic DEPs = test: Hepatic differentially expressed proteins (TMT LC-MS/MS) in treated TX mice
Description: as §1
(§2) Other differentially expressed proteins (DEPs) were screened at p<0.05 in the WD mouse group compared to the control group. […] Results are reported in Table 3 and 4 for hepatic and serum proteins, respectively.

serum DEPs = test: Serum differentially expressed proteins (TMT LC-MS/MS) in treated TX mice
Description: as §1, §2

[1] = liver, 25 mg/kg/day, DEP down-regulated in WD
[2] = liver, 25 mg/kg/day, DEP up-regulated in WD
[3] = liver, 50 mg/kg/day, DEP down-regulated in WD
[4] = liver, 50 mg/kg/day, DEP up-regulated in WD
[5] = serum, 25 mg/kg/day, DEP down-regulated in WD
[6] = serum, 25 mg/kg/day, DEP up-regulated in WD
[7] = serum, 50 mg/kg/day, DEP down-regulated in WD
[8] = serum, 50 mg/kg/day, DEP up-regulated in WD

CN(C)CCNCCc1ccc2c(Cl)cc(Cl)c(N)c2n1 [TDMQ20]
level of CP compared to WD mice (ceruloplasmin (CP); TDMQ20 at 25 or 50 mg/kg): significantly increased | CP level compared with control mice (ceruloplasmin (CP); TDMQ20 25 mg/kg): equal | CP level compared with control mice (ceruloplasmin (CP); TDMQ20 50 mg/kg): higher | hepatic DEPs TDMQ20-H/control ratio (hepatic DEPs; TDMQ20 50 mg/kg): ~1 | hepatic DEPs after treatment (hepatic DEPs; TDMQ20 at 25 or 50 mg/kg): reversed to normal values | TDMQ20-M/control fold change: 2-Oxo-4-hydroxy-4-caboxy-5-ureidoimidazoline decarboxylase (Urad) (hepatic DEPs; [1]): 0.93 | TDMQ20-M/control fold change: ATP-citrate synthase (Acly) (hepatic DEPs; [1]): 0.86 | TDMQ20-M/control fold change: Alcohol deshydrogenase class-3 (Adh5) (hepatic DEPs; [1]): 0.89 | TDMQ20-M/control fold change: Aspartate-tRNA ligase, cytoplasmic (Dars1) (hepatic DEPs; [1]): 1.03 | TDMQ20-M/control fold change: Charged multivesicular body protein 7 (Chmp7) (hepatic DEPs; [1]): 1.04 | TDMQ20-M/control fold change: Cytochrome P450 2C70 (Cyp2c70) (hepatic DEPs; [1]): 0.85 | TDMQ20-M/control fold change: Desmin (Des) (hepatic DEPs; [1]): 0.88 | TDMQ20-M/control fold change: Mesencephalic astrocyte-derived neurotrophic factor (Manf) (hepatic DEPs; [1]): 0.94 | TDMQ20-M/control fold change: Nicotinamide/nicotinic acid mononucleotide adenylyltransferase 3 (Nmnat3) (hepatic DEPs; [1]): 0.97 | TDMQ20-M/control fold change: Progranulin (Gm) (hepatic DEPs; [1]): 1.05 | TDMQ20-M/control fold change: Putative phospholipase B-like 2 (Plbd2) (hepatic DEPs; [1]): 0.98 | TDMQ20-M/control fold change: Pyridoxine-5′-phosphate oxidase (Pnpo) (hepatic DEPs; [1]): 1.01 | TDMQ20-M/control fold change: Ribosome biogenesis protein BOP1 (Bop1) (hepatic DEPs; [1]): 1.08 | TDMQ20-M/control fold change: Triosephosphate isomerase (Tpi1) (hepatic DEPs; [1]): 0.85 | TDMQ20-M/control fold change: 28 kDa heat- and acid-stable phosphoprotein (Pdap1) (hepatic DEPs; [2]): 1.15 | TDMQ20-M/control fold change: AN1-type zinc finger protein 6 (Zfand6) (hepatic DEPs; [2]): 1.09 | TDMQ20-M/control fold change: ATP synthase subunit a (Mtatp6) (hepatic DEPs; [2]): 1.04 | TDMQ20-M/control fold change: Afadin (Afdn) (hepatic DEPs; [2]): 1.07 | TDMQ20-M/control fold change: Agmatinase, mitochondrial (Agmat) (hepatic DEPs; [2]): 1.15 | TDMQ20-M/control fold change: Alanine glyoxylate aminotransferase (Agxt) (hepatic DEPs; [2]): 1.18 | TDMQ20-M/control fold change: Alpha-1-antitrypsin-1-2 (Serpina1b) (hepatic DEPs; [2]): 1.09 | TDMQ20-M/control fold change: Cyclin-dependent kinase inhibitor 1B (Cdkn1b) (hepatic DEPs; [2]): 1.13 | TDMQ20-M/control fold change: Epsin-1 (Epn1) (hepatic DEPs; [2]): 1.05 | TDMQ20-M/control fold change: Exosome complex exonuclease RRP44 (Dis3) (hepatic DEPs; [2]): 1.16 | TDMQ20-M/control fold change: Histone H2A.V (hepatic DEPs; [2]): 1.14 | TDMQ20-M/control fold change: Histone H2B type 1-H (H2bc9) (hepatic DEPs; [2]): 1.05 | TDMQ20-M/control fold change: Histone H4 (H4c16) (hepatic DEPs; [2]): 1.12 | TDMQ20-M/control fold change: Mitochondrial dicarboxylase carrier (Slc25a10) (hepatic DEPs; [2]): 1.10 | TDMQ20-M/control fold change: Mitochondrial outer membrane protein SLC25A46 (Slc25a46) (hepatic DEPs; [2]): 1.10 | TDMQ20-M/control fold change: NADPH adrenodoxin oxidoreductase, mitochondrial (Fdxr) (hepatic DEPs; [2]): 1.10 | TDMQ20-M/control fold change: OCIA domain-containing protein 1 (Ociad1) (hepatic DEPs; [2]): 1.14 | TDMQ20-M/control fold change: PRKC apoptosis WT1 regulator protein (Pawr) (hepatic DEPs; [2]): 1.10 | TDMQ20-M/control fold change: Peroxisomal membrane protein-2 (Pxmp2) (hepatic DEPs; [2]): 1.14 | TDMQ20-M/control fold change: Probable ATP-dependent RNA helicase DDX17 (Ddx17) (hepatic DEPs; [2]): 1.01 | TDMQ20-M/control fold change: Protein Hook homolog 1 (Hook1) (hepatic DEPs; [2]): 1.07 | TDMQ20-M/control fold change: Protein LYRIC (Mtdh) (hepatic DEPs; [2]): 0.85 | TDMQ20-M/control fold change: Protein scribble homolog (Scrib) (hepatic DEPs; [2]): 1.07 | TDMQ20-M/control fold change: Protein-glutamine gamma-glutamyltransferase K (Tgm1) (hepatic DEPs; [2]): 0.90 | TDMQ20-M/control fold change: Regucalcin (Rgn) (hepatic DEPs; [2]): 1.07 | TDMQ20-M/control fold change: Ribonuclease P protein subunit p30 (Rpp30) (hepatic DEPs; [2]): 1.20 | TDMQ20-M/control fold change: SET nuclear proto-oncogene (Set) (hepatic DEPs; [2]): 0.95 | TDMQ20-M/control fold change: Sideroflexin-5 (Sfxn5) (hepatic DEPs; [2]): 1.06 | TDMQ20-M/control fold change: Zinc transporter 10 (Slc30a10) (hepatic DEPs; [2]): 0.94 | TDMQ20-H/control fold change: 2-Oxo-4-hydroxy-4-caboxy-5-ureidoimidazoline decarboxylase (Urad) (hepatic DEPs; [3]): 0.96 | TDMQ20-H/control fold change: ATP-citrate synthase (Acly) (hepatic DEPs; [3]): 0.97 | TDMQ20-H/control fold change: Alcohol deshydrogenase class-3 (Adh5) (hepatic DEPs; [3]): 0.86 | TDMQ20-H/control fold change: Aspartate-tRNA ligase, cytoplasmic (Dars1) (hepatic DEPs; [3]): 1.13 | TDMQ20-H/control fold change: Charged multivesicular body protein 7 (Chmp7) (hepatic DEPs; [3]): 0.94 | TDMQ20-H/control fold change: Cytochrome P450 2C70 (Cyp2c70) (hepatic DEPs; [3]): 0.88 | TDMQ20-H/control fold change: Desmin (Des) (hepatic DEPs; [3]): 0.88 | TDMQ20-H/control fold change: Mesencephalic astrocyte-derived neurotrophic factor (Manf) (hepatic DEPs; [3]): 0.91 | TDMQ20-H/control fold change: Nicotinamide/nicotinic acid mononucleotide adenylyltransferase 3 (Nmnat3) (hepatic DEPs; [3]): 0.94 | TDMQ20-H/control fold change: Progranulin (Gm) (hepatic DEPs; [3]): 1.04 | TDMQ20-H/control fold change: Putative phospholipase B-like 2 (Plbd2) (hepatic DEPs; [3]): 0.99 | TDMQ20-H/control fold change: Pyridoxine-5′-phosphate oxidase (Pnpo) (hepatic DEPs; [3]): 0.90 | TDMQ20-H/control fold change: Ribosome biogenesis protein BOP1 (Bop1) (hepatic DEPs; [3]): 0.97 | TDMQ20-H/control fold change: Triosephosphate isomerase (Tpi1) (hepatic DEPs; [3]): 0.90 | TDMQ20-H/control fold change: 28 kDa heat- and acid-stable phosphoprotein (Pdap1) (hepatic DEPs; [4]): 1.10 | TDMQ20-H/control fold change: AN1-type zinc finger protein 6 (Zfand6) (hepatic DEPs; [4]): 0.91 | TDMQ20-H/control fold change: ATP synthase subunit a (Mtatp6) (hepatic DEPs; [4]): 0.91 | TDMQ20-H/control fold change: Afadin (Afdn) (hepatic DEPs; [4]): 1.05 | TDMQ20-H/control fold change: Agmatinase, mitochondrial (Agmat) (hepatic DEPs; [4]): 1.01 | TDMQ20-H/control fold change: Alanine glyoxylate aminotransferase (Agxt) (hepatic DEPs; [4]): 1.03 | TDMQ20-H/control fold change: Alpha-1-antitrypsin-1-2 (Serpina1b) (hepatic DEPs; [4]): 1.04 | TDMQ20-H/control fold change: Cyclin-dependent kinase inhibitor 1B (Cdkn1b) (hepatic DEPs; [4]): 1.10 | TDMQ20-H/control fold change: Epsin-1 (Epn1) (hepatic DEPs; [4]): 0.93 | TDMQ20-H/control fold change: Exosome complex exonuclease RRP44 (Dis3) (hepatic DEPs; [4]): 1.00 | TDMQ20-H/control fold change: Histone H2A.V (hepatic DEPs; [4]): 1.19 | TDMQ20-H/control fold change: Histone H2B type 1-H (H2bc9) (hepatic DEPs; [4]): 1.07 | TDMQ20-H/control fold change: Histone H4 (H4c16) (hepatic DEPs; [4]): 1.15 | TDMQ20-H/control fold change: Mitochondrial dicarboxylase carrier (Slc25a10) (hepatic DEPs; [4]): 1.00 | TDMQ20-H/control fold change: Mitochondrial outer membrane protein SLC25A46 (Slc25a46) (hepatic DEPs; [4]): 1.11 | TDMQ20-H/control fold change: NADPH adrenodoxin oxidoreductase, mitochondrial (Fdxr) (hepatic DEPs; [4]): 1.04 | TDMQ20-H/control fold change: OCIA domain-containing protein 1 (Ociad1) (hepatic DEPs; [4]): 1.08 | TDMQ20-H/control fold change: PRKC apoptosis WT1 regulator protein (Pawr) (hepatic DEPs; [4]): 1.18 | TDMQ20-H/control fold change: Peroxisomal membrane protein-2 (Pxmp2) (hepatic DEPs; [4]): 0.98 | TDMQ20-H/control fold change: Probable ATP-dependent RNA helicase DDX17 (Ddx17) (hepatic DEPs; [4]): 1.11 | TDMQ20-H/control fold change: Protein Hook homolog 1 (Hook1) (hepatic DEPs; [4]): 0.94 | TDMQ20-H/control fold change: Protein LYRIC (Mtdh) (hepatic DEPs; [4]): 1.06 | TDMQ20-H/control fold change: Protein scribble homolog (Scrib) (hepatic DEPs; [4]): 1.09 | TDMQ20-H/control fold change: Protein-glutamine gamma-glutamyltransferase K (Tgm1) (hepatic DEPs; [4]): 0.84 | TDMQ20-H/control fold change: Regucalcin (Rgn) (hepatic DEPs; [4]): 0.91 | TDMQ20-H/control fold change: Ribonuclease P protein subunit p30 (Rpp30) (hepatic DEPs; [4]): 1.20 | TDMQ20-H/control fold change: SET nuclear proto-oncogene (Set) (hepatic DEPs; [4]): 1.01 | TDMQ20-H/control fold change: Sideroflexin-5 (Sfxn5) (hepatic DEPs; [4]): 0.96 | TDMQ20-H/control fold change: Zinc transporter 10 (Slc30a10) (hepatic DEPs; [4]): 0.9 | serum DEPs TDMQ20-H/control ratio (serum DEPs; TDMQ20 50 mg/kg): ~1 | serum DEPs after treatment (serum DEPs; TDMQ20 at 25 or 50 mg/kg): reversed to normal values | TDMQ20-M/ctrl fold change: Alpha-aminoadipic semialdehyde synthase, mitochondrial (Aass) (serum DEPs; [5]): 0.97 | TDMQ20-M/ctrl fold change: Cystatin-C (Cst3) (serum DEPs; [5]): 0.88 | TDMQ20-M/ctrl fold change: Elongation factor 1-delta (Eef1d) (serum DEPs; [5]): 0.85 | TDMQ20-M/ctrl fold change: GrpE protein homolog 1, mitochondrial (Grpel1) (serum DEPs; [5]): 0.95 | TDMQ20-M/ctrl fold change: Transgelin-2 (Tagln2) (serum DEPs; [5]): 0.87 | TDMQ20-M/ctrl fold change: Ig heavy chain V region 1-72 (Ighv1-72) (serum DEPs; [6]): 1.08 | TDMQ20-M/ctrl fold change: Regucalcin (Rgn) (serum DEPs; [6]): 1.06 | TDMQ20-M/ctrl fold change: Ribonuclease 4 (Rnase4) (serum DEPs; [6]): 1.10 | TDMQ20-M/ctrl fold change: Triokinase/FMN cyclase (Tkfc) (serum DEPs; [6]): 1.07 | TDMQ20-M/ctrl fold change: Tropomyosin alpha-3 chain (Tpm3) (serum DEPs; [6]): 1.11 | TDMQ20-H/ctrl fold change: Alpha-aminoadipic semialdehyde synthase, mitochondrial (Aass) (serum DEPs; [7]): 0.93 | TDMQ20-H/ctrl fold change: Cystatin-C (Cst3) (serum DEPs; [7]): 0.92 | TDMQ20-H/ctrl fold change: Elongation factor 1-delta (Eef1d) (serum DEPs; [7]): 0.88 | TDMQ20-H/ctrl fold change: GrpE protein homolog 1, mitochondrial (Grpel1) (serum DEPs; [7]): 1.04 | TDMQ20-H/ctrl fold change: Transgelin-2 (Tagln2) (serum DEPs; [7]): 0.91 | TDMQ20-H/ctrl fold change: Ig heavy chain V region 1-72 (Ighv1-72) (serum DEPs; [8]): 1.15 | TDMQ20-H/ctrl fold change: Regucalcin (Rgn) (serum DEPs; [8]): 0.88 | TDMQ20-H/ctrl fold change: Ribonuclease 4 (Rnase4) (serum DEPs; [8]): 1.03 | TDMQ20-H/ctrl fold change: Triokinase/FMN cyclase (Tkfc) (serum DEPs; [8]): 0.95 | TDMQ20-H/ctrl fold change: Tropomyosin alpha-3 chain (Tpm3) (serum DEPs; [8]): 0.95
